Experimental data as given in patent publication US20250332112A1, “IONIZABLE CATIONIC LIPIDS FOR LIPID NANOPARTICLES” (GENEVANT SCIENCES GMBH, priority 2022, published 2025).

Columns and labels:
[1] = system: luciferase activity in the liver; experiment: Luciferase activity in liver after intravenous luciferase mRNA LNP; type: in vivo; settings: 0.5 mg/kg IV, 6 h post-IV administration, BALB/c mice (n = 4)
Experimental: Frozen aliquots of liver were thawed and homogenized in 1 mL of 1×CCLR (Cell Culture Lysis Reagent) using a FastPrep® homogenizer. The homogenate was then centrifuged at 16,000 RPM for 10 minutes at 4° C. Twenty (20) μL of the supernatant was loaded into a 96-well white plate and luminescence measured following addition of luciferase reagent (Promega Luciferase Assay System). Luciferase activity was determined by comparing luminescence of the homogenized samples to luciferase protein standards. To account for any quenching of luminescence by components in the liver homogenate, luciferase was added to the liver homogenates of untreated animals and the resulting luminescence measured. The resulting quench factor was applied to all samples to obtain the corrected luciferase activity, and normalized per unit mass of tissue analyzed.

[2] = Particle characteristics of LNPs containing luciferase mRNA and novel ionizable lipids; type: physicochemical
Experimental: The lipid solution contains 4 components: a PEG-conjugated lipid, an ionizable lipid, cholesterol, and a phospholipid (e.g., DSPC). Lipid stocks were prepared using the lipid identities and molar ratios as described, to achieve a total concentration of ˜7 mg/mL in 100% ethanol. Firefly luciferase mRNA (TriLink Biotechnologies, L-7202) or ornithine transcarbamylase (OTC) mRNA (TriLink Biotechnologies, custom designed) was diluted in acetate, pH 5 buffer and nuclease free water to achieve a target concentration of 0.366 mg/mL mRNA in 100 mM acetate, pH 5. Equal volumes of the lipid and nucleic acid solutions were blended at a flow rate of 400 mL/min through a T-connector, and diluted with ˜4 volumes of PBS, pH 7.4. Formulations were placed in Slide-A-Lyzer dialysis units (MWCO 10,000) and dialyzed overnight against 10 mM Tris, 500 mM NaCl, pH 8 buffer. Following dialysis, the formulations were concentrated to ˜0.6 mg/mL using VivaSpin concentrator units (MWCO 100,000) and dialyzed overnight against 5 mM Tris, 10% sucrose, pH 8 buffer. Formulations were filtered through a 0.2 μm syringe filter (PES membrane). Nucleic acid concentration was determined by the RiboGreen assay. Particle size and polydispersity were determined using a Malvern Nano Series Zetasizer.
LNP formulations containing novel ionizable lipids all produced stable particles with high encapsulation efficiency (Tables 1-7).

[3] = Table 5, luciferase mRNA LNP 1.6:54.6:32.8:10.9
[4] = Table 2, luciferase mRNA LNP 1.6:54.6:32.8:10.9
[5] = Table 4, luciferase mRNA LNP 1.6:54.6:32.8:10.9
[6] = Table 1, luciferase mRNA LNP 1.6:54.6:32.8:10.9

Compound: CCCCCCCCCCC(CCCCCCC(=O)OCC(CCCCCC)CCCCCCCC)N(CCCCCCCCCC)C(=O)CCCN(C)C (stereo not drawn) [Compound 1, 2-Hexyldecyl 8-(N-decyl-4-(dimethylamino)butanamido)-octadecanoate]
- Luc Activity ([1]; Table 12): 1.70E+08 pg/g liver
- Final Product % EE [2, 3]: 99%
- Final Product PDI [2, 3]: 0.04
- Final Product Z-avg [2, 3]: 77 nm

Compound: CCCCCCCCCCC(CCCCC(=O)OCC(CCCCCC)CCCCCCCC)N(CCCCCCCCCC)C(=O)CCCN(C)C (stereo not drawn) [Compound 2, 2-Hexyldecyl 6-(N-decyl-4-(dimethylamino)butanamido)hexadecanoate]
- Luc Activity ([1]; Table 12): 7.11E+07 pg/g liver
- Final Product % EE [2, 3]: 96%
- Final Product PDI [2, 3]: 0.08
- Final Product Z-avg [2, 3]: 81 nm

Compound: CCCCCCCCCC(CC(=O)OCC(CCCCCC)CCCCCCCC)N(CCCN(C)C)C(=O)CCCCC(=O)OCC(CCCC)CCCCCC (stereo not drawn) [Compound 21, 2-hexyldecyl 3-{6-[(2-butyloctyl)oxy]-N-[3-(dimethylamino)propyl]-6-oxohexanamido}dodecanoate]
- Luc Activity ([1]; Table 9): 4.58E+07 pg/g liver
- Final Product % EE [2, 4]: 98%
- Final Product PDI [2, 4]: (0.03)
- Final Product Z-avg [2, 4]: 77 nm

Compound: CCCCCCCCCC(CC(=O)OCC(CCCCCC)CCCCCCCC)N(CCCN(C)C)C(=O)CCCCCCC(=O)OCC(CCCC)CCCCCC (stereo not drawn) [Compound 22, 2-Hexyldecyl 3-(8-((2-butyloctyl)oxy)-N-(3-(dimethylamino)propyl)-8-oxooctanamido)-dodecanoate]
- Luc Activity ([1]; Table 9): 4.71E+07 pg/g liver
- Final Product % EE [2, 4]: 98%
- Final Product PDI [2, 4]: (0.04)
- Final Product Z-avg [2, 4]: 74 nm

Compound: CCCCCCCCCCC(CCCC(=O)OCC(CCCCCC)CCCCCCCC)N(CCCN(C)C)C(=O)CCCCCCC(=O)OCC(CCCC)CCCCCC (stereo not drawn) [Compound 25, 2-Hexyldecyl 5-(8-((2-butyloctyl)oxy)-N-(3-(dimethylamino)propyl)-8-oxooctanamido)-pentadecanoate]
- Luc Activity ([1]; Table 9): 7.76E+06 pg/g liver
- Final Product % EE [2, 4]: 99%
- Final Product PDI [2, 4]: (0.03)
- Final Product Z-avg [2, 4]: 78 nm

Compound: CCCCCCCCCCC(CCCCCC(=O)OCCCCC(CCCCCCCC)CCCCCCCC)N(CCCN(C)C)C(=O)CCCCCCC(=O)OC(CC)CCCCCCCC (stereo not drawn) [Compound 27, 5-Octyltridecyl 7-(N-(3-(dimethylamino)propyl)-8-oxo-8-(undecan-3-yloxy)octanamido)-heptadecanoate]
- Luc Activity ([1]; Table 11): 9.17E+06 pg/g liver
- Final Product % EE [2, 5]: 98%
- Final Product PDI [2, 5]: 0.04
- Final Product Z-avg [2, 5]: 86 nm

Compound: CCCCCCCCCCC(CCCCCC(=O)OCCCCC(CCCCCCCC)CCCCCCCC)N(CCN(C)C)C(=O)CCCCCCC(=O)OC(CC)CCCCCCCC (stereo not drawn) [Compound 28, 5-Octyltridecyl 7-(N-(2-(dimethylamino)ethyl)-8-oxo-8-(undecan-3-yloxy)octanamido)-heptadecanoate]
- Luc Activity ([1]; Table 11): 6.50E+06 pg/g liver
- Final Product % EE [2, 5]: 95%
- Final Product PDI [2, 5]: 0.20
- Final Product Z-avg [2, 5]: 90 nm

Compound: CCCCCCCCCCC(CCCCCC(=O)OCC(CCCCCC)CCCCCCCC)N(CCCN(C)C)C(=O)CCCCCCC(=O)OCC(CCCC)CCCCCC (stereo not drawn) [Compound 29, 2-Hexyldecyl 7-(8-((2-butyloctyl)oxy)-N-(3-(dimethylamino)propyl)-8-oxooctanamido)-heptadecanoate]
- Luc Activity ([1]; Table 12): 6.74E+07 pg/g liver
- Final Product % EE [2, 3]: 98%
- Final Product PDI [2, 3]: 0.02
- Final Product Z-avg [2, 3]: 80 nm

Compound: CCCCCCCCCCC(CCCCCCC(=O)OCCC(CCCCC)CCCCC)N(CCCN(C)C)C(=O)CCCCCCC(=O)OCCC(CCCCC)CCCCC (stereo not drawn) [Compound 30]
- Luc Activity ([1]; Table 12): 3.76E+07 pg/g liver

Compound: CCCCCCCCCCC(CCCCCCC(=O)OC(CCCCCCCC)CCCCCCCC)N(CCCN(C)C)C(=O)CCCCCCC(=O)OCCC(CCCCC)CCCCC (stereo not drawn) [Compound 31]
- Luc Activity ([1]; Table 12): 1.47E+07 pg/g liver

Compound: CCCCC/C=C\CCCC(CCC/C=C\CCCCC)CN(C(=O)CCCCN(C)C)C(CCCCCCCCCC)CCCCCCC(=O)OCCCCCCCCCC (stereo not drawn) [Compound 35]
- Luc Activity ([1]; Table 11): 1.40E+07 pg/g liver

Compound: CCCCC/C=C\CCCC(CCC/C=C\CCCCC)CN(C(=O)CCCN(C)C)C(CCCCCCCCCC)CCCCCCC(=O)OCCCCCCCCCC (stereo not drawn) [Compound 36]
- Luc Activity ([1]; Table 11): 5.54E+06 pg/g liver

Compound: CCCCC/C=C\CCCC(CCC/C=C\CCCCC)CN(C(=O)CCN(C)C)C(CCCCCCCCCC)CCCCCCC(=O)OCCCCCCCCCC (stereo not drawn) [Compound 37]
- Luc Activity ([1]; Table 11): 3.01E+06 pg/g liver

Compound: CCCCCCCCCC(=O)N(CCCN(C)C)C(CCCCCCCCC)CCOC(=O)C(F)(CCCCCC)CCCCCCCC (stereo not drawn) [Compound 40, 3-{N-[3-(dimethylamino)propyl]decanamido}dodecyl 2-fluoro-2-hexyldecanoate]
- Luc Activity ([1]; Table 9): 3.57E+07 pg/g liver
- Final Product % EE [2, 4]: 98%
- Final Product PDI [2, 4]: (0.05)
- Final Product Z-avg [2, 4]: 87 nm

Compound: CCCCCCCCCCC(CCCCCCC(=O)OCC(CCCCCC)CCCCCCCC)N(OCCCN(C)C)C(=O)CCCCCCC(=O)OCC(CCCC)CCCCCC (stereo not drawn) [Compound 41, 2-hexyldecyl 8-{8-[(2-butyloctyl)oxy]-N-[3-(dimethylamino)propoxy]-8-oxooctanamido}octadecanoate]
- Luc Activity ([1]; Table 12): 6.69E+06 pg/g liver
- Final Product % EE [2, 3]: 94%
- Final Product PDI [2, 3]: 0.04
- Final Product Z-avg [2, 3]: 70 nm

Compound: CCCCCCCCCCC(CCCCCC(=O)OCC(CCCCCC)CCCCCCCC)N(OCCCN(C)C)C(=O)CCCCCCCCC (stereo not drawn) [Compound 42, 2-hexyldecyl 7-{N-[3-(dimethylamino)propoxy]decanamido}heptadecanoate]
- Luc Activity ([1]; Table 12): 1.14E+07 pg/g liver
- Final Product % EE [2, 3]: 97%
- Final Product PDI [2, 3]: 0.10
- Final Product Z-avg [2, 3]: 65 nm

Compound: CCCCCCCCCCON(C(=O)CCCN(C)C)C(CCCCCCCCCC)CCCCCC(=O)OCC(CCCCCC)CCCCCCCC (stereo not drawn) [Compound 44, 2-Hexyldecyl 7-(N-(decyloxy)-4-(dimethylamino)butanamido)heptadecanoate]
- Luc Activity ([1]; Table 12): 6.17E+07 pg/g liver
- Final Product % EE [2, 3]: 98%
- Final Product PDI [2, 3]: 0.06
- Final Product Z-avg [2, 3]: 68 nm

Compound: CCCCCCCCCC(CC(=O)OCC(CCCCCC)CCCCCCCC)N(CCCN(C)C)S(=O)(=O)CCCCCCCC (stereo not drawn) [Compound 48, 2-hexyldecyl 3-{N-[3-(dimethylamino)propyl]octane-1-sulfonamido}dodecanoate]
- Luc Activity ([1]; Table 8): 6.49E+06 pg/g liver
- Final Product % EE [2, 6]: 96%
- Final Product PDI [2, 6]: 0.04
- Final Product Z-avg ([2]; Table 1, luciferase mRNA LNP 1.6:54.6:32.8:10.9 PEG2000-C-DMA:Ionizable lipid:Cholesterol:DSPC): 71 nm

Compound: CCCCCCCCCCC(CCCCCCC(=O)OCC(CCCCCC)CCCCCCCC)N(CCCCCCCC(=O)OCC(CCCCCC)CCCCCCCC)C(=O)CCCN(C)C (stereo not drawn) [Compound 63]
- Luc Activity ([1]; Table 12): 6.23E+07 pg/g liver

Compound: CCCCCCCCCCC(CCCCCCC(=O)OCC(CCCCCC)CCCCCCCC)N(CCCCCCCC(=O)OCC(CCCCCC)CCCCCCCC)C(=O)CCCCN(C)C (stereo not drawn) [Compound 64]
- Luc Activity ([1]; Table 12): 9.76E+07 pg/g liver

Compound: CCCCCCCCCCC(CCCCCCC(=O)OC(CCCCCCCC)CCCCCCCC)N(CCCCCCCC(=O)OCCC(CCCCC)CCCCC)C(=O)CCCN(C)C (stereo not drawn) [Compound 68]
- Luc Activity ([1]; Table 12): 4.36E+07 pg/g liver

Compound: CCCCCCCCCCC(CCCCCCC(=O)OCC(CCCCCC)CCCCCCCC)N(CCCN(C)C)C(=O)CCCCCCC(=O)OCC(CCCC)CCCCCC (stereo not drawn) [Compound 78]
- Luc Activity ([1]; Table 11): 5.30E+07 pg/g liver

Compound: CCCCCCCCCCOC(=O)CCCCCCC(=O)N(CCCN(C)C)C(CCCCCCCCCC)CCCCCCC(=O)OCC(CCCCCC)CCCCCCCC (stereo not drawn) [Compound 79]
- Luc Activity ([1]; Table 11): 1.05E+07 pg/g liver

Compound: CCCCCCCCCCC(CCCCCCC(=O)OCC(CCCCCC)CCCCCCCC)N(CCCN(C)C)C(=O)CCCCCCCC(=O)OCC(CCCC)CCCCCC (stereo not drawn) [Compound 80]
- Luc Activity ([1]; Table 12): 3.28E+07 pg/g liver

Compound: CCCCCCCCCCC(CCCCCCC(=O)OCC(CCCCCC)CCCCCCCC)N(CCCN(C)C)C(=O)CCCCCCCCC(=O)OCC(CCCC)CCCCCC (stereo not drawn) [Compound 81]
- Luc Activity ([1]; Table 12): 3.47E+07 pg/g liver

Compound: CCCCCCCCCCC(CCCCCCC(=O)OCC(CCCCCC)CCCCCCCC)N(CCCN(C)C)C(=O)CCCCCCC(=O)OCCC(CCCCC)CCCCC (stereo not drawn) [Compound 82]
- Luc Activity ([1]; Table 12): 1.23E+07 pg/g liver

Compound: CCCCCCCCCCC(CCCCCCC(=O)OCC(CCCCCC)CCCCCCCC)N(CCCN(C)C)C(=O)CCCCCCC(=O)OCc1cc(CCCCCC)cc(CCCCCC)c1 (stereo not drawn) [Compound 83]
- Luc Activity ([1]; Table 12): 4.59E+07 pg/g liver
